Data published in patent US4117118A, “Organic compounds” (Sandoz Ltd., priority 1976, dated 1978).

Assays:
[1] = amorphous form
Text: Behaviour in the thin layer chromatogram (substance spots made visible with iodine vapour): […]

Aspergillus niger = settings: standard tests

C/C=C/C[C@@H](C)[C@@H](O)[C@H]1C(=O)N[C@@H](C)C(=O)N(C)CC(=O)N(C)[C@@H](CC(C)C)C(=O)N[C@@H](C(C)C)C(=O)N(C)[C@@H](CC(C)C)C(=O)N[C@@H](C)C(=O)N[C@H](C)C(=O)N(C)[C@@H](CC(C)C)C(=O)N(C)[C@@H](CC(C)C)C(=O)N(C)[C@@H](C(C)C)C(=O)N1C [S 7481/F-2, Cyclosporin B]
Solubility in most of the usual organic solvents [1]: readily soluble
Solubility in petroleum ether and water [1]: practically insoluble
Inhibition of the growth of Aspergillus niger (Aspergillus niger): inhibition of the growth
